Measured values: PMC5078090, “In vivo screening and discovery of novel candidate thalidomide analogs in the zebrafish embryo and chicken embryo model systems” (Oncotarget, 2016)
“Also recorded” adds a separate entry of the source.

Legend:
[1] = system: chicken embryos; test: In ovo chicken embryo teratogenicity assay; assay type: in vivo, white leghorn chicken; settings: for Lowest effective concentration, Chicken assay: HH stage 17-18 embryos, where no activity was seen the concentration shown is the lowest screened; for Defects in chicken embryo development (text and figure legend): applied at HH stage 17-18, result in words
Description: Compounds of interest were screened in chicken and/or zebrafish embryos (Figure 4), to determine if these compounds are teratogenic. The chicken embryo is well established as a model to determine the action of compounds upon development.
Fertilized white leghorn chicken embryos were incubated at 38°C and staged according to the Hamburger and Hamilton (HH) stages of development. Embryos were tested at HH stage 17-18 (day 2.5). Following membrane removal test compounds or vehicle control solutions were applied over the embryo. The eggs were sealed and the development of the embryos was monitored up to HH stage 30 (E9). A minimum of 3 embryos were used per concentration, per drug.

[2] = system: TNF-α; set-up: method as in PMID 22642825, PMID 22277195; settings: rats challenged with systemic LPS; cited from earlier work
[3] = system: WT Zebrafish; test: WT zebrafish embryo developmental defect (teratogenicity) screen; assay type: in vivo; settings: for Lowest effective concentration, WT Zebrafish assay: screened 1-200 μg/mL, where no activity was seen the concentration shown is the lowest screened
[4] = system: TNF-α; set-up: method as in PMID 22642825, PMID 22277195; settings: cited from earlier work
[5] = system: fli1:EGFP zebrafish embryos; test: fli1:EGFP zebrafish embryo angiogenesis assay (intersegmental vessel outgrowth and number); assay type: in vivo; settings: for Anti-angiogenic activity (loss of ISVs or inhibition of ISV outgrowth): fli1:EGFP embryos, 24 h incubation, result in words
Description: To determine if our novel thalidomide analogs (Figure 1) had any effect on in vivo angiogenesis, we used fli1:EGFP embryos which express green fluorescent protein (GFP) on endothelial cells throughout development. Embryos were allowed to develop for 24 hours, then exposed to either vehicle or a compound of interest at the concentration range of 1 to 200 μg/mL. During this time the vasculature is rapidly expanding and developing new, naive intersegmental vessels (ISVs). The embryos were imaged after 24 hours of incubation with the drug (Figure 2A). […] We also observed that the potency of each compound varied.
Figure 2 The effect of novel thalidomide analogs on vessel length fli1:EGFP zebrafish were incubated with vehicle or compounds for 24 hours, at which point vessel outgrowth and number were measured. A. Images of zebrafish exposed to the vehicle or test compounds. […] Treatment with C4 (1.5 μg/mL), C18 (50 μg/mL), C81 (50 μg/mL), C82 (5 μg/mL), C83 (20 μg/mL) and C84 (50 μg/mL) show reduction in vessel out growth (white arrow) and in some cases loss of vessel (white asterisks). B. Stalk length & C. stalk number are reduced. Compounds are shown at the lowest concentration producing an effect. The data represent the mean + the standard error of the mean.
Zebrafish embryos were treated with analogs as previously described. Briefly, fli1:EGFP embryos were collected and embryos were allowed to develop for 24 hours. Embryos were dechorionated manually and exposed to test compounds or vehicle control (0.1% DMSO) for a further 24 hours. Embryos were anesthetized with 0.05% MS222 (Tricaine) (Sigma Aldrich) and live visualization of blood vessels was carried out.
(§1) A broad series of novel thalidomide-based compounds were chemically synthesized (WL, NHG and WDF, NIH), dissolved in DMSO, stored in stock concentrations between 10-100 mg/mL, and used at a final working DMSO concentration of 0.1%. The chemical structures of lead compounds of interest were confirmed by chemical characterization (purity >99.5%). Compounds were screened across a range of concentrations from 1-200 μg/mL to determine the lowest effective concentration.

[6] = system: Tg(MPO::EGFP)^114 zebrafish; test: Tg(MPO::EGFP)^114 zebrafish tail fin clip assay of neutrophil migration to the wound site; assay type: in vivo; settings: for minimal effective concentration: Danio rerio, Neutrophil, fin clipped at 72 hpf, imaged at 24 h, screened 1-200 μg/mL, where no activity was seen the concentration shown is the lowest screened
Text: To assess the immunomodulatory effects of the thalidomide analogs across the concentration range used in the previous assay, the transgenic zebrafish line Tg(MPO::EGFP)^114 was used. These embryos express GFP tagged myeloperoxidase, marking neutrophils during the inflammatory response, for example following injury. […] This allowed us to subsequently assess the anti-inflammatory activity of each compound by immersing embryos in the test drug or vehicle. The embryos were examined for migration of neutrophils to the wound site. In comparison to control embryos (Figure 3A) compounds with anti-inflammatory properties had reduction of at least 50% of neutrophils recruited to the wound site (Figure 3). […] We also screened the previously identified six anti-angiogenic compounds of interest in the Tg(MPO::EGFP)^114 line.
Figure 3 The effect of thalidomide analogs on the inflammatory response to wound healing A. Zebrafish (72 hpf) embryos transgenic for a fluorescently tagged neutrophil marker Tg(MPO::EGFP)^114 were fin clipped to induce an inflammatory response and exposed to vehicle or a test compound. Broken line indicates the tail fin with cut and area of the wound site. […] The data represent the mean + the standard error of the mean.
Tg(MPO::EGFP)^114 embryos were tail fin clipped as previously detailed and incubated with test compounds or vehicle control at 72 hpf. Fish were imaged at 24 hours and the number of migratory neutrophils present at the wound site were counted. Compounds inducing an at least 50% reduction of neutrophils to the wound site were considered to have anti-inflammatory properties in this system. All larvae were assessed for viability and morphological integrity. A minimum of 10 embryos were used per concentration per drug. Error bars represent standard error of the mean.
as §1

Row | SMILES | Lowest effective concentration, Chicken assay [1] [µg/mL] | Defects in chicken embryo development (text and figure legend) [1] | Teratogenicity in these assays ([1]; chicken and zebrafish embryo assays together, result in words) | Effect on LPS-induced elevations in TNF-α, plasma and brain of rats [2] | Eye development / eye diameter in zebrafish embryos ([3]; Figure 4, result in words) | Pectoral fin development / fin length in zebrafish embryos ([3]; Figure 4, result in words) | Lowest effective concentration, WT Zebrafish assay [3] [µg/mL] | Effect on LPS-induced elevations in TNF-α, cultured RAW 264.7 cells [4] | minimal effective concentration ([5]; Danio rerio, 24 h, 24 hpf embryos exposed 24 h, screened 1-200 μg/mL, where no activity was seen the concentration shown is the lowest screened) [µg/mL] | Anti-angiogenic activity (loss of ISVs or inhibition of ISV outgrowth) [5] | minimal effective concentration [6] [µg/mL] | Effect on neutrophil migration to the wound site (anti-inflammatory activity) ([6]; fin clipped 72 hpf embryos, result in words) | Damage observed ([1]; HH stage 17-18 chicken embryos, 100 μg/mL)
1 | O=C1NC(=S)CCC1N1C(=O)c2ccccc2C1=S (stereo not shown) [Compound C2, 2,3-dihydro-2-(2-oxo-6-thioxo-3-piperidinyl)-3-thioxo-1H-isoindol-1-one] | 100 | no effect | non-teratogenic | potently lower lipopolysaccharide (LPS)-induced elevations in TNF-α | normal eye development | normal | 10 | potently lower lipopolysaccharide (LPS)-induced elevations in TNF-α | 10 | without anti-angiogenic activities | 10 | reduced neutrophil migration; also recorded: significant anti-inflammatory action | –
2 | O=C1c2cccc([N+](=O)[O-])c2CN1C12CC3CC(CC(C3)C1)C2 [Compound C84] | 100 | hemorrhaging | – | – | reductions in eye diameter | – | 10 | – | – | anti-angiogenic activity | 10 | – | Hemorrhaging
